Test results: patent US20060069132A1, “Azolecarboxamide herbicides” (priority 2004, published 2006)

Legend:
[1] = tested on: morningglory; assay: Test B pre-/postemergence herbicide test; format: in vivo, Ipomoea coccinea; conditions: for Morningglory plant response rating: postemergence
Outline: (§1)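 Visual rating, 0 (no effect) to 100 (complete control), versus untreated controls after 13–15 d in greenhouse. Pre- and postemergence applications (postemergence plants 2–18 cm, 1–4 leaves); flooded paddy arm at 2-leaf stage. Compounds in non-phytotoxic solvent plus surfactant.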

[2] = tested on: rice; assay: Test C flooded paddy test; format: in vivo, Oryza sativa
Outline: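 Postemergence sprays applied to plants 2 to 18 cm tall (1- to 4-leaf stage); paddy species grown to 2-leaf stage under flooding. After 12 to 14 days in greenhouse, visual rating versus untreated controls on 0–100 scale (0 no effect, 100 complete control).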

[3] = tested on: smallflower umbrella sedge; assay: Test C flooded paddy test; format: in vivo, Cyperus difformis
[4] = tested on: velvetleaf; assay: Test B pre-/postemergence herbicide test; format: in vivo, Abutilon theophrasti; conditions: for Velvetleaf plant response rating: postemergence
Outline: (§2)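 Seeds were planted and treated preemergence with compounds formulated in a non-phytotoxic solvent mixture containing surfactant, while plants at the 1- to 4-leaf stage (2 to 18 cm) received postemergence sprays. Flooded paddy plants were grown to the 2-leaf stage. After 13 to 15 days in a greenhouse, injury was visually rated 0–100 against untreated controls.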

[5] = tested on: cocklebur; assay: Test B pre-/postemergence herbicide test; format: in vivo, Xanthium strumarium; conditions: for Cocklebur plant response rating: postemergence
Outline: as §1

[6] = tested on: rice; assay: Test B pre-/postemergence herbicide test; format: in vivo, Oryza sativa; conditions: 0 = no effect, 100 = complete control, preemergence
Outline: as §2

[7] = tested on: barnyardgrass; assay: Test C flooded paddy test; format: in vivo, Echinochloa crus-galli
Outline: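 After a postemergence application at 1 to 4 leaves (plants 2–18 cm high), or at 2 leaves for barnyardgrass in flooded paddy, plants stayed in the greenhouse for 12 to 14 days. Damage was then judged visually relative to control plants, with 100 indicating complete control.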

[8] = tested on: blackgrass; assay: Test B postemergence herbicide test; format: in vivo, Alopecurus myosuroides; conditions: postemergence
Outline: (§3)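 Visual ratings, 0 (no effect) to 100 (complete control), made versus controls after 13–15 d greenhouse. Paddy plants treated at 2-leaf stage; postemergence plants at 1- to 4-leaf stage, 2–18 cm tall.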

[9] = tested on: large crabgrass; assay: Test B pre-/postemergence herbicide test; format: in vivo, Digitaria sanguinalis; conditions: for Crabgrass, Large plant response rating: postemergence
Outline: as §2

[10] = tested on: corn; assay: Test B pre-/postemergence herbicide test; format: in vivo, Zea mays; conditions: for Corn plant response rating: postemergence
Outline: as §2

[11] = tested on: barnyardgrass; assay: Test B pre-/postemergence herbicide test; format: in vivo, Echinochloa crus-galli; conditions: for Barnyardgrass plant response rating: postemergence
Outline: as §1

[12] = tested on: barnyardgrass; assay: Test B flooded paddy test; format: in vivo, Echinochloa crus-galli; conditions: 1000 g ai/ha, scale 0 to 100 (0 no effect, 100 complete control)
Outline: as §3

[13] = tested on: rice; assay: Test B flooded paddy test; format: in vivo, Oryza sativa; conditions: 1000 g ai/ha, scale 0 to 100 (0 no effect, 100 complete control)
Outline: as §3

[14] = tested on: giant foxtail; assay: Test B pre-/postemergence herbicide test; format: in vivo, Setaria faberi; conditions: for Foxtail, Giant plant response rating: postemergence
Outline: as §2

[15] = tested on: ducksalad; assay: Test C flooded paddy test; format: in vivo, Heteranthera limosa
[16] = tested on: pigweed; assay: Test B pre-/postemergence herbicide test; format: in vivo, Amaranthus retroflexus; conditions: for Pigweed plant response rating: postemergence
Outline: as §2

[17] = tested on: Surinam grass; assay: Test B pre-/postemergence herbicide test; format: in vivo, Urochloa decumbens; conditions: for Surinam Grass plant response rating: postemergence
Outline: as §2

[18] = tested on: wheat; assay: Test B postemergence herbicide test; format: in vivo, Triticum aestivum; set-up: key to Wheat plant response rating: 0 = no effect, 100 = complete control; conditions: postemergence
Outline: (§4)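 Treated at 2-leaf (paddy) or 1–4-leaf, 2–18 cm (postemergence); greenhouse 13–15 d; visual score vs control, 0 none to 100 complete control; dash = not tested.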

[19] = tested on: lambsquarters; assay: Test B pre-/postemergence herbicide test; format: in vivo, Chenopodium album; conditions: for Lambsquarters plant response rating: postemergence
Outline: as §2

[20] = tested on: wild oat; assay: Test B postemergence herbicide test; format: in vivo, Avena fatua; conditions: postemergence
Outline: as §4

[21] = tested on: small flower umbrella sedge; assay: Test B flooded paddy test; format: in vivo, Cyperus difformis; conditions: 1000 g ai/ha, scale 0 to 100 (0 no effect, 100 complete control)
Outline: as §3

[22] = tested on: ducksalad; assay: Test B flooded paddy test; format: in vivo, Heteranthera limosa; conditions: 1000 g ai/ha, scale 0 to 100 (0 no effect, 100 complete control)
Outline: as §3

[23] = 125 g ai/ha, 0 = no effect, 100 = complete control, preemergence
[24] = 125 g ai/ha, visual rating, scale 0 (no effect) to 100 (complete control)
[25] = 500 g ai/ha, visual rating, 0 = no effect, 100 = complete control, preemergence
[26] = 500 g ai/ha, scale 0 to 100, 0 is no effect, 100 is complete control
[27] = 125 g ai/ha, scale 0 to 100 (0 no effect, 100 complete control)
[28] = 250 g ai/ha, scale of 0 to 100, 0 is no effect, 100 is complete control
[29] = 500 g ai/ha, visual rating after 12 to 14 days, scale 0 to 100 (0 no effect, 100 complete control)

Compound: CCn1nc(C2(C)CC2)cc1C(=O)Nc1cccc(C(=O)N(C)C)c1 [Compound 303]
- Morningglory plant response rating (0 to 100 scale) [1, 23]: 10
- Morningglory plant response rating [1, 24]: 80
- Plant response rating, Morningglory [1, 25]: 50
- Morningglory plant response rating [1, 26]: 90
- Rice plant response rating ([2]; 62 g ai/ha, scale 0 to 100): 30
- Rice plant response rating [2, 27]: 65
- Rice plant response rating [2, 28]: 80
- Plant response rating, Rice [2, 29]: 85
- Sedge, Umbrella plant response rating ([3]; 62 g ai/ha, scale 0 to 100): 75
- Sedge, Umbrella plant response rating [3, 27]: 85
- Sedge, Umbrella plant response rating [3, 28]: 85
- Plant response rating, Sedge, Umbrella [3, 29]: 90
- Velvetleaf plant response rating [4, 24]: 30
- Plant response rating, Velvetleaf [4, 25]: 100
- Velvetleaf plant response rating [4, 26]: 70
- Cocklebur plant response rating (0 to 100 scale) [5, 23]: 0
- Cocklebur plant response rating [5, 24]: 10
- Plant response rating, Cocklebur [5, 25]: 20
- Cocklebur plant response rating [5, 26]: 30
- Rice plant response rating (0 to 100 scale) ([6]; 125 g ai/ha): 70
- Plant response rating, Rice ([6]; 500 g ai/ha, visual rating): 80
- Barnyardgrass plant response rating ([7]; 62 g ai/ha, scale 0 to 100 (0 no effect, 100 complete control)): 30
- Barnyardgrass plant response rating [7, 27]: 45
- Barnyardgrass plant response rating [7, 28]: 80
- Plant response rating, Barnyardgrass [7, 29]: 95
- Blackgrass plant response rating [8, 24]: 20
- Blackgrass plant response rating [8, 26]: 40
- Crabgrass, Large plant response rating (0 to 100 scale) [9, 23]: 100
- Crabgrass, Large plant response rating [9, 24]: 10
- Plant response rating, Crabgrass, Large [9, 25]: 100
- Crabgrass, Large plant response rating [9, 26]: 60
- Corn plant response rating [10, 24]: 70
- Plant response rating, Corn [10, 25]: 70
- Corn plant response rating [10, 26]: 70
- Barnyardgrass plant response rating (0 to 100 scale) [11, 23]: 70
- Barnyardgrass plant response rating [11, 24]: 40
- Plant response rating, Barnyardgrass [11, 25]: 90
- Barnyardgrass plant response rating [11, 26]: 40
- Barnyardgrass plant response rating [12]: 90
- Rice plant response rating [13]: 90
- Foxtail, Giant plant response rating (0 to 100 scale) [14, 23]: 50
- Foxtail, Giant plant response rating [14, 24]: 50
- Plant response rating, Foxtail, Giant [14, 25]: 100
- Foxtail, Giant plant response rating [14, 26]: 50
- Ducksalad plant response rating ([15]; 62 g ai/ha, scale 0 to 100): 55
- Ducksalad plant response rating [15, 27]: 75
- Ducksalad plant response rating [15, 28]: 80
- Plant response rating, Ducksalad [15, 29]: 85
- Pigweed plant response rating (0 to 100 scale) [16, 23]: 100
- Pigweed plant response rating [16, 24]: 70
- Plant response rating, Pigweed [16, 25]: 100
- Pigweed plant response rating [16, 26]: 90
- Surinam Grass plant response rating (0 to 100 scale) [17, 23]: 50
- Surinam Grass plant response rating [17, 24]: 10
- Plant response rating, Surinam Grass [17, 25]: 100
- Surinam Grass plant response rating [17, 26]: 20
- Wheat plant response rating [18, 24]: 10
- Wheat plant response rating [18, 26]: 20
- Lambsquarters plant response rating (0 to 100 scale) [19, 23]: 100
- Lambsquarters plant response rating [19, 24]: 80
- Plant response rating, Lambsquarters [19, 25]: 100
- Lambsquarters plant response rating [19, 26]: 90
- Oat, Wild plant response rating [20, 24]: 30
- Oat, Wild plant response rating [20, 26]: 40
- Sedge, Umbrella plant response rating [21]: 90
- Ducksalad plant response rating [22]: 90
